Values of other authors, collected in PMC12715049 (Journal of Molecular Medicine (Berlin, Germany), 2025).

Test system: mHTT aggregates
Conditions: read-out: IC50, binding to mHTT aggregates; radio-binding assays

IC50: 1.3 ± 1 nM
SMILES: COc1ccc(COc2ccc3oc(-c4ccc(=O)n(C)n4)nc3c2)nc1 [CHDI-180R]
